Data set [1] deals with Recombinant Respiratory Syncytial virus strain A2 containing the firefly luciferase reporter (RSV-Fluc). The data set can be described thus: microbe, parasite or virus in culture. Format: cell-based. To be noted: human respiratory syncytial virus, NHBE.
Data set [2] has as its system SARS-CoV-2. The data set is described as follows: microbe, parasite or virus in culture. Format: cell-based. To be noted: Severe acute respiratory syndrome coronavirus 2, read-out: SARS EC50.
Data set [3] can be described thus: MT4 cytotoxicity (CC50). To be noted: human, MT4 cells, MT4 CC50, Table 4.
Where [4] appears, read: 72 h, read-out: RSV-Fluc EC50 (NHBE), NHBE cells, three days, Table 2.

For 18 compounds, EC50 and CC50 results are on record in US12030904B2 (priority 2020, dated 2024).

The structures appear in SMILES notation. Read-outs that look alike come from different tables or passages of the source.

In general, EC50 refers to the concentration giving half of the maximal effect. As for `CCCCCCCCCCCCCCCCCCOC[C@H](COP(=O)(O)OC[C@H]1O[C@@](C#N)(c2ccc3c(N)ncnn23)[C@H](O)[C@@H]1O)OCc1cc(C#N)cc(C#N)c1` [Example 26, ((2R,3S,4R,5R)-5-(4-aminopyrrolo[2,1-f][1,2,4]triazin-7-yl)-5-cyano-3,4-dihydroxytetrahydrofuran-2-yl)methyl ((R)-2-((3,5-dicyanobenzyl)oxy)-3-(octadecyloxy)propyl) hydrogen phosphate], the EC50 in data set [1] (setting [4]) was 19 nM; in data set [1] (read-out: RSV EC50, Table 2a) it was 19 nM; in data set [2], 650 nM.
For `CCCCCCCCCCCCCCCCCCOC[C@@H](COP(=O)(O)OC[C@H]1O[C@@](C#N)(c2ccc3c(N)ncnn23)[C@H](O)[C@@H]1O)Oc1ccccc1` [Example 38, ((2R,3S,4R,5R)-5-(4-aminopyrrolo[2,1-f][1,2,4]triazin-7-yl)-5-cyano-3,4-dihydroxytetrahydrofuran-2-yl)methyl ((S)-3-(octadecyloxy)-2-phenoxypropyl) hydrogen phosphate], the EC50 amounted to 281 nM in data set [1] (read-out: RSV EC50, Table 2a) and 10000 nM in data set [2].
Turning to `CCCCCCCCCCCCCCCCCCOC[C@H](COP(=O)(O)OC[C@H]1O[C@@](C#N)(c2ccc3c(N)ncnn23)[C@H](O)[C@@H]1O)OCc1ccccc1C#N` [Example 50, ((2R,3S,4R,5R)-5-(4-aminopyrrolo[2,1-f][1,2,4]triazin-7-yl)-5-cyano-3,4-dihydroxytetrahydrofuran-2-yl)methyl ((R)-2-((2-cyanobenzyl)oxy)-3-(octadecyloxy)propyl) hydrogen phosphate], the EC50 in data set [1] (setting [4]) stood at 90 nM; in data set [1] (read-out: RSV EC50, Table 2a), 90 nM; in data set [2], 854 nM.
Regarding `CCCCCCCCCCCCCCCCCCOC[C@H](COP(=O)(O)OC[C@H]1O[C@@](C#N)(c2ccc3c(N)ncnn23)[C@H](O)[C@@H]1O)OCc1cccc(OC)c1` [Example 63, ((2R,3S,4R,5R)-5-(4-aminopyrrolo[2,1-f][1,2,4]triazin-7-yl)-5-cyano-3,4-dihydroxytetrahydrofuran-2-yl)methyl ((R)-2-((3-methoxybenzyl)oxy)-3-(octadecyloxy)propyl) hydrogen phosphate], the EC50 in data set [1] (setting [4]) came out at 33 nM; in data set [1] (read-out: RSV EC50, Table 2a) it was 3 nM; in data set [2], 1050 nM.
Turning to `CCCCCCCCCCCCCCCCCCOC[C@H](COP(=O)(O)OC[C@H]1O[C@@](C#N)(c2ccc3c(N)ncnn23)[C@H](O)[C@@H]1O)OCc1ccccc1Cl` [Example 64, ((2R,3S,4R,5R)-5-(4-aminopyrrolo[2,1-f][1,2,4]triazin-7-yl)-5-cyano-3,4-dihydroxytetrahydrofuran-2-yl)methyl ((R)-2-((2-chlorobenzyl)oxy)-3-(octadecyloxy)propyl) hydrogen phosphate], the EC50 in data set [1] (setting [4]) worked out at 42 nM; in data set [1] (read-out: RSV EC50, Table 2a) it was 42 nM; in data set [2], 735 nM.
Regarding `CCCCCCCCCCCCCCCCCCOC[C@H](COP(=O)(O)OC[C@H]1O[C@@](C#N)(c2ccc3c(N)ncnn23)[C@H](O)[C@@H]1O)OCc1c(F)cccc1C#N` [Example 65, ((2R,3S,4R,5R)-5-(4-aminopyrrolo[2,1-f][1,2,4]triazin-7-yl)-5-cyano-3,4-dihydroxytetrahydrofuran-2-yl)methyl ((R)-2-((2-cyano-6-fluorobenzyl)oxy)-3-(octadecyloxy)propyl) hydrogen phosphate], the concentration giving a half-maximal response (EC50) in data set [1] (setting [4]) was 61 nM; in data set [1] (read-out: RSV EC50, Table 2a), 61 nM.
As for `CCCCCCCCCCCCCCCCCCOC[C@H](COP(=O)(O)OC[C@H]1O[C@@](C#N)(c2ccc3c(N)ncnn23)[C@H](O)[C@@H]1O)OCc1cc(C#N)ccc1F` [Example 66, ((2R,3S,4R,5R)-5-(4-aminopyrrolo[2,1-f][1,2,4]triazin-7-yl)-5-cyano-3,4-dihydroxytetrahydrofuran-2-yl)methyl ((R)-2-((5-cyano-2-fluorobenzyl)oxy)-3-(octadecyloxy)propyl) hydrogen phosphate], the EC50 was 10 nM in data set [1] (setting [4]); 10 nM in data set [1] (read-out: RSV EC50, Table 2a); 476 nM in data set [2].
Take `CCCCCCCCCCCCCCCCCCOC[C@H](COP(=O)(O)OC[C@H]1O[C@@](C#N)(c2ccc3c(N)ncnn23)[C@H](O)[C@@H]1O)OCc1cc(Cl)cc(C#N)c1` [Example 68, ((2R,3S,4R,5R)-5-(4-aminopyrrolo[2,1-f][1,2,4]triazin-7-yl)-5-cyano-3,4-dihydroxytetrahydrofuran-2-yl)methyl ((R)-2-((3-chloro-5-cyanobenzyl)oxy)-3-(octadecyloxy)propyl) hydrogen phosphate]: the EC50 in data set [1] (setting [4]) came out at 25 nM; in data set [1] (read-out: RSV EC50, Table 2a) it was 25 nM; in data set [2], 927 nM.
The term CC50 denotes the concentration giving 50% cytotoxicity. Low values mean harm at low concentration, high ones better tolerance by the cells. Regarding `CCCCCCCCCCCCCCCCCCOC[C@H](COP(=O)(O)OC[C@H]1O[C@@](C#N)(c2ccc3c(N)ncnn23)[C@H](O)[C@@H]1O)Oc1cncc(C#N)c1` [Example 84, ((2R,3S,4R,5R)-5-(4-aminopyrrolo[2,1-f][1,2,4]triazin-7-yl)-5-cyano-3,4-dihydroxytetrahydrofuran-2-yl)methyl ((R)-2-((5-cyanopyridin-3-yl)oxy)-3-(octadecyloxy)propyl) hydrogen phosphate], in data set [1] (read-out: RSV EC50, Table 4), the EC50 amounted to 7 nM. For the same compound, it took 212 nM to reach half-maximal cytotoxicity in data set [3] (CC50).
In the same order, the values of `CCCCCCCCCCCCCCCCCCOC[C@H](COP(=O)(O)OC[C@H]1O[C@@](C#N)(c2ccc3c(N)ncnn23)[C@H](O)[C@@H]1O)Oc1ccc(C#N)c(OCC)c1` [Example 85, ((2R,3S,4R,5R)-5-(4-aminopyrrolo[2,1-f][1,2,4]triazin-7-yl)-5-cyano-3,4-dihydroxytetrahydrofuran-2-yl)methyl ((R)-2-(4-cyano-3-ethoxyphenoxy)-3-(octadecyloxy)propyl) hydrogen phosphate] are 8 nM and 143 nM.
For `CCCCCCCCCCCCCCCCCCOC[C@@H](CCc1cc(F)cc(C#N)c1)COP(=O)(O)OC[C@H]1O[C@@](C#N)(c2ccc3c(N)ncnn23)[C@H](O)[C@@H]1O` [Example 86, ((2R,3S,4R,5R)-5-(4-aminopyrrolo[2,1-f][1,2,4]triazin-7-yl)-5-cyano-3,4-dihydroxytetrahydrofuran-2-yl)methyl ((R)-4-(3-cyano-5-fluorophenyl)-2-((octadecyloxy)methyl)butyl) hydrogen phosphate], the EC50 in data set [1] (read-out: RSV EC50, Table 4) was determined as 430 nM. In data set [3], this compound registered a CC50 of 22000 nM.
As to `CCCCCCCCCCCCCCCCCCOC[C@H](COP(=O)(O)OC[C@H]1O[C@@](C#N)(c2ccc3c(N)ncnn23)[C@H](O)[C@@H]1O)Oc1ccccc1` [Example 87, ((2R,3S,4R,5R)-5-(4-aminopyrrolo[2,1-f][1,2,4]triazin-7-yl)-5-cyano-3,4-dihydroxytetrahydrofuran-2-yl)methyl ((R)-3-(octadecyloxy)-2-phenoxypropyl) hydrogen phosphate], in data set [3], the midpoint of cytotoxicity, the CC50, lay at 3100 nM.
On to `CCCCCCCCCCCCCCCCCCOC[C@H](COP(=O)(O)OC[C@H]1O[C@@](C#N)(c2ccc3c(N)ncnn23)[C@H](O)[C@@H]1O)Oc1cccc(OC)n1` [Example 88, ((2R,3S,4R,5R)-5-(4-aminopyrrolo[2,1-f][1,2,4]triazin-7-yl)-5-cyano-3,4-dihydroxytetrahydrofuran-2-yl)methyl ((R)-2-((6-methoxypyridin-2-yl)oxy)-3-(octadecyloxy)propyl) hydrogen phosphate], for which the EC50 in data set [1] (read-out: RSV EC50, Table 4) is 31 nM. In addition, in data set [3], half-maximal cytotoxicity (CC50) was put at 201 nM.
Turning to `CCCCCCCCCCCCCCCCCCOC[C@H](COP(=O)(O)OC[C@H]1O[C@@](C#N)(c2ccc3c(N)ncnn23)[C@H](O)[C@@H]1O)Oc1ccc(OC)cn1` [Example 89, ((2R,3S,4R,5R)-5-(4-aminopyrrolo[2,1-f][1,2,4]triazin-7-yl)-5-cyano-3,4-dihydroxytetrahydrofuran-2-yl)methyl ((R)-2-((5-methoxypyridin-2-yl)oxy)-3-(octadecyloxy)propyl) hydrogen phosphate], in data set [1] (read-out: RSV EC50, Table 4), the EC50 amounted to 28 nM. Also, the midpoint of cytotoxicity in data set [3], the CC50, lay at 962 nM.
With `CCCCCCCCCCCCCCCCCCOC[C@H](COP(=O)(O)OC[C@H]1O[C@@](C#N)(c2ccc3c(N)ncnn23)[C@H](O)[C@@H]1O)Oc1cc(OC)ccn1` [Example 90, ((2R,3S,4R,5R)-5-(4-aminopyrrolo[2,1-f][1,2,4]triazin-7-yl)-5-cyano-3,4-dihydroxytetrahydrofuran-2-yl)methyl ((R)-2-((4-methoxypyridin-2-yl)oxy)-3-(octadecyloxy)propyl) hydrogen phosphate], the EC50 in data set [1] (read-out: RSV EC50, Table 4) worked out at 109 nM. For the same compound, the CC50 in data set [3] worked out at 383 nM.
`CCCCCCCCCCCCCCCCCCOC[C@H](COP(=O)(O)OC[C@H]1O[C@@](C#N)(c2ccc3c(N)ncnn23)[C@H](O)[C@@H]1O)Oc1cc(C#N)ccn1` [Example 99, [(2R,3S,4R,5R)-5-(4-Aminopyrrolo[2,1-f][1,2,4]triazin-7-yl)-5-cyano-3,4-dihydroxy-tetrahydrofuran-2-yl]methyl [(2R)-2-[(4-cyano-2-pyridyl)oxy]-3-octadecoxy-propyl]hydrogen phosphate]: the midpoint of cytotoxicity in data set [3], the CC50, lay at 1780 nM.
On to `CCCCCCCCCCCCCCCCOC[C@H](COP(=O)(O)OC[C@H]1O[C@@](C#N)(c2ccc3c(N)ncnn23)[C@H](O)[C@@H]1O)OCc1ccc(F)c(C#N)c1` [Example 109, [(2R,3S,4R,5R)-5-(4-Aminopyrrolo[2,1-f][1,2,4]triazin-7-yl)-5-cyano-3,4-dihydroxy-tetrahydrofuran-2-yl]methyl [(2R)-2-[(3-cyano-4-fluoro-phenyl)methoxy]-3-hexadecoxy-propyl] hydrogen phosphate], for which the EC50 in data set [1] (read-out: RSV EC50, Table 4) was determined as 347 nM; in data set [2], 1600 nM.
In the same order, the values of `CCCCCCCCCCCCCCCCCCOC[C@H](COP(=O)(O)OC[C@H]1O[C@@](C#N)(c2ccc3c(N)ncnn23)[C@H](O)[C@@H]1O)OCc1ccc(F)cc1` [Example 110, [(2R,3S,4R,5R)-5-(4-Aminopyrrolo[2,1-f][1,2,4]triazin-7-yl)-5-cyano-3,4-dihydroxy-tetrahydrofuran-2-yl]methyl [(2R)-2-[(4-fluorophenyl)methoxy]-3-octadecoxy-propyl] hydrogen phosphate] are 402 nM and 1200 nM.
